Data from patent US11230717B2, “Plants having increased tolerance to herbicides” (BASF SE, priority 2013, dated 2022).

Tests used:
transgenic Corn plants = test: Greenhouse testing of transgenic Corn plants (homozygous T2), herbicide spray test; type: in vivo, Zea mays
Experimental: Transgenic plants expressing heterologous HPPD or HST enzymes are tested for tolerance against HPPD-inhibiting herbicides in greenhouse experiments.
For post emergence treatment, the test plants are first grown to a height of 3 to 15 cm, depending on the plant habit, and only then treated with the herbicides. For this purpose, the test plants are either sown directly and grown in the same containers, or they are first grown separately and transplanted into the test containers a few days prior to treatment. For testing of T0 plants, cuttings can be used. In the case of soybean plants, an optimal shoot for cutting is about 7.5 to 10 cm tall, with at least two nodes present. Each cutting is taken from the original transformant (mother plant) and dipped into rooting hormone powder (indole-3-butyric acid, IBA). The cutting is then placed in oasis wedges inside a bio-dome. Wild type cuttings are also taken simultaneously to serve as controls. The cuttings are kept in the bio-dome for 5-7 days and then transplanted to pots and then acclimated in the growth chamber for two more days. Subsequently, the cuttings are transferred to the greenhouse, acclimated for approximately 4 days, and then subjected to spray tests as indicated.
Depending on the species, the plants are kept at 10-25° C. or 20-35° C. The test period ex-tends over 3 weeks. During this time, the plants are tended and their response to the individual treatments is evaluated. Herbicide injury evaluations are taken at 2 and 3 weeks after treatment. Plant injury is rated on a scale of 0 to 9, 0 being no injury and 9 being complete death.
Transgenic corn plants were sprayed with doses from 62.5-250 g/ha with the benzamide-derivative HPPD-inhibiting herbicide and injury evaluations were taken two weeks after treatment. […] As depicted in Table 19, control plants were severely injured by all doses of herbicide applied, with 86% of leaf material being damaged at the highest rate applied. […] Application of 250 g/ha active ingredient resulted only in 10% leaf damage (event 1) in transgenic plants which gave in direct comparison with wild-type plants (injury value is 86%) an 8-fold increased tolerance at this application rate. In addition, transgenic corn plants comprising a transgene encoding the mutated version of Arabidopsis HPPD with methionine 335 exchanged to histidine, are tolerant for the benzamide-derivative inhibitor tested in the present invention.

transgenic Soy plants = test: Greenhouse testing of transgenic Soy plants (T2), herbicide spray test; type: in vivo, Glycine max

CSc1c(Cl)cc(F)c(C(=O)Nc2ncnn2C)c1Cl [Inhibitor 3, 2,4-dichloro-6-fluoro-3-methylsulfanyl-N-(2-methyl-1,2,4-triazol-3-yl)benzamide]
Injury evaluation, scale 0-100% (transgenic Corn plants; Corn AtL385V, I393L Event 1, 62.5 g/ha, two weeks): 3% | Injury evaluation, scale 0-100% (transgenic Corn plants; Corn AtL385V, I393L Event 1, 125 g/ha, two weeks): 7% | Injury evaluation, scale 0-100% (transgenic Corn plants; Corn AtL385V, I393L Event 1, 250 g/ha, two weeks): 10% | Injury evaluation, scale 0-100% (transgenic Corn plants; Corn AtL385V, I393L Event 2, 62.5 g/ha, two weeks): 6% | Injury evaluation, scale 0-100% (transgenic Corn plants; Corn AtL385V, I393L Event 2, 125 g/ha, two weeks): 10% | Injury evaluation, scale 0-100% (transgenic Corn plants; Corn AtL385V, I393L Event 2, 250 g/ha, two weeks): 47% | Injury evaluation, scale 0-100% (transgenic Corn plants; Corn AtM335H, 62.5 g/ha, two weeks): 3% | Injury evaluation, scale 0-100% (transgenic Corn plants; Corn AtM335H, 125 g/ha, two weeks): 4% | Injury evaluation, scale 0-100% (transgenic Corn plants; Corn AtM335H, 250 g/ha, two weeks): 6% | Injury evaluation, scale 0-100% (transgenic Corn plants; Corn WT, 62.5 g/ha, two weeks after treatment): 40% | Injury evaluation, scale 0-100% (transgenic Corn plants; Corn WT, 125 g/ha, two weeks after treatment): 63% | Injury evaluation, scale 0-100% (transgenic Corn plants; Corn WT, 250 g/ha, two weeks after treatment): 86% | Injury evaluation, scale 0-100% (transgenic Soy plants; Soy AtHPPD Event 1, 31.25 g/ha, two weeks): 10% | Injury evaluation, scale 0-100% (transgenic Soy plants; Soy AtHPPD Event 1, 62.5 g/ha, two weeks): 16% | Injury evaluation, scale 0-100% (transgenic Soy plants; Soy AtHPPD Event 1, 125 g/ha, two weeks): 44% | Injury evaluation, scale 0-100% (transgenic Soy plants; Soy AtHPPD Event 2, 31.25 g/ha, two weeks): 13% | Injury evaluation, scale 0-100% (transgenic Soy plants; Soy AtHPPD Event 2, 62.5 g/ha, two weeks): 23% | Injury evaluation, scale 0-100% (transgenic Soy plants; Soy AtHPPD Event 2, 125 g/ha, two weeks): 40% | Injury evaluation, scale 0-100% (transgenic Soy plants; Soy AtL385V, I393L Event 2, 31.25 g/ha, two weeks): 20% | Injury evaluation, scale 0-100% (transgenic Soy plants; Soy AtL385V, I393L Event 2, 62.5 g/ha, two weeks): 35% | Injury evaluation, scale 0-100% (transgenic Soy plants; Soy AtL385V, I393L Event 2, 125 g/ha, two weeks): 38% | Injury evaluation, scale 0-100% (transgenic Soy plants; Soy AtM335H Event 1, 31.25 g/ha, two weeks): 10% | Injury evaluation, scale 0-100% (transgenic Soy plants; Soy AtM335H Event 1, 62.5 g/ha, two weeks): 21% | Injury evaluation, scale 0-100% (transgenic Soy plants; Soy AtM335H Event 1, 125 g/ha, two weeks): 33% | Injury evaluation, scale 0-100% (transgenic Soy plants; Soy AtM335H Event 2, 31.25 g/ha, two weeks): 14% | Injury evaluation, scale 0-100% (transgenic Soy plants; Soy AtM335H Event 2, 62.5 g/ha, two weeks): 29% | Injury evaluation, scale 0-100% (transgenic Soy plants; Soy AtM335H Event 2, 125 g/ha, two weeks): 31% | Injury evaluation, scale 0-100% (transgenic Soy plants; Soy AtM335Y, 31.25 g/ha, two weeks): 9% | Injury evaluation, scale 0-100% (transgenic Soy plants; Soy AtM335Y, 62.5 g/ha, two weeks): 45% | Injury evaluation, scale 0-100% (transgenic Soy plants; Soy AtM335Y, 125 g/ha, two weeks): 46% | Injury evaluation, scale 0-100% (transgenic Soy plants; Soy AtP336A, E363Q, L385V, I393L, 31.25 g/ha, two weeks): 30% | Injury evaluation, scale 0-100% (transgenic Soy plants; Soy AtP336A, E363Q, L385V, I393L, 62.5 g/ha, two weeks): 30% | Injury evaluation, scale 0-100% (transgenic Soy plants; Soy AtP336A, E363Q, L385V, I393L, 125 g/ha, two weeks): 50% | Injury evaluation, scale 0-100% (transgenic Soy plants; Soy GmHPPD1, 31.25 g/ha, two weeks): 15% | Injury evaluation, scale 0-100% (transgenic Soy plants; Soy GmHPPD1, 62.5 g/ha, two weeks): 29% | Injury evaluation, scale 0-100% (transgenic Soy plants; Soy GmHPPD1, 125 g/ha, two weeks): 46% | Injury evaluation, scale 0-100% (transgenic Soy plants; Soy, transgene none, 31.25 g/ha, two weeks after treatment): 49% | Injury evaluation, scale 0-100% (transgenic Soy plants; Soy, transgene none, 62.5 g/ha, two weeks after treatment): 68% | Injury evaluation, scale 0-100% (transgenic Soy plants; Soy, transgene none, 125 g/ha, two weeks after treatment): 79%
